Data published in patent publication US12275731B2, “Azaindole inhibitors of wild-type and mutant forms of LRRK2” (DANA-FARBER CANCER INSTITUTE, INC., priority 2018, dated 2025).

Key:
Experiment in all cases: KinomeScan profiling
Assay type in all cases: binding
QSK = QSK (Homo sapiens, UniProt Q9Y2K2); conditions: read-out: % control
Method in brief: (§1)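 At 1 μM in DMSO, compounds are run through a broad 468-member kinase panel. The luminescent read-out is normalised so that vehicle gives 100% and a positive control gives 0%; any kinase falling below 35% is treated as a target.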

RIPK4 = biological target: T1, RIPK4 (Homo sapiens, UniProt P57078); conditions: RIPK4, 1 μM; read-out: % control
T1 sequence (P57078 1-832): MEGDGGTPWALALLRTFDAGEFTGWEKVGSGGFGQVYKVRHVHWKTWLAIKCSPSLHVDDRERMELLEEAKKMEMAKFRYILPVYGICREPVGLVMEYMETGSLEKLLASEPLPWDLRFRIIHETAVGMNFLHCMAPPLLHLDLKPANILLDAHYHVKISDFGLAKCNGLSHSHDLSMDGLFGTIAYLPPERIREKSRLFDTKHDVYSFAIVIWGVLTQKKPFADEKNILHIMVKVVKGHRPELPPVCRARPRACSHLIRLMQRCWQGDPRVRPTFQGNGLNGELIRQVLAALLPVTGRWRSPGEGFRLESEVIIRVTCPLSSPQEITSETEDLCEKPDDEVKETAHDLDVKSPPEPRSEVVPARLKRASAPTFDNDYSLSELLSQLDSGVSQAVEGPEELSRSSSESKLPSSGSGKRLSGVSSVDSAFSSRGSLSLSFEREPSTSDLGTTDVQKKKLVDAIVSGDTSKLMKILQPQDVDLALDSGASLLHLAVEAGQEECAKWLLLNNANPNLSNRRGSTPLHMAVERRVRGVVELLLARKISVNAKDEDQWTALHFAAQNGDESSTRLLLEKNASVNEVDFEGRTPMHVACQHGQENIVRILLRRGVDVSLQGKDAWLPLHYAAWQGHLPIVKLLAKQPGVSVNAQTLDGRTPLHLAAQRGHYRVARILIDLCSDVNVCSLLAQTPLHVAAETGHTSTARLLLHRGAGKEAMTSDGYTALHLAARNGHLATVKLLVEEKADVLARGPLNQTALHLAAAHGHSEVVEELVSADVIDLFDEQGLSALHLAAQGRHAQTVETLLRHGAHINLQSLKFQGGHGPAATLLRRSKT
Method in brief: as §1

PAK3 = PAK3 (Homo sapiens, UniProt O75914); conditions: PAK3, 1 μM; read-out: % control
Chain of PAK3 (O75914 whole entry): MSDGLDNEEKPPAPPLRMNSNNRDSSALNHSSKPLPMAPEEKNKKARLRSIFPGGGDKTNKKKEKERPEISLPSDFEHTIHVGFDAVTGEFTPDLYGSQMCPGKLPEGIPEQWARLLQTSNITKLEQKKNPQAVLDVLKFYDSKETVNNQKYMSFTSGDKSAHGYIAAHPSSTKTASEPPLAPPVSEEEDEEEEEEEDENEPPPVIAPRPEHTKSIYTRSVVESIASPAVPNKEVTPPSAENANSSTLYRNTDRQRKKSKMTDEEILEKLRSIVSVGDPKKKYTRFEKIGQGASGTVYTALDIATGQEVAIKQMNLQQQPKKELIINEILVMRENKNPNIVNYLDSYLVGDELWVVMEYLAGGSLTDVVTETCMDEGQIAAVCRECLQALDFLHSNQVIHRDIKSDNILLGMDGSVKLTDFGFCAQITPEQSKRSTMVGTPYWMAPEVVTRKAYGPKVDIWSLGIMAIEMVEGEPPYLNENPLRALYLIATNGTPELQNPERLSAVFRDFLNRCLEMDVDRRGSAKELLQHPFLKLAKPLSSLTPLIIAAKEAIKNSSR
Method in brief: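 Luminescence (RLU) was converted to percent of control, with DMSO set as 100% and a reference compound as 0%. Test compounds were run at 1 μM against 468 kinases. Kinases showing below 35% of control were scored as bound.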

NEK10 = biological target: T2, NEK10 (Homo sapiens, UniProt Q6ZWH5); conditions: NEK10, 1 μM; read-out: % control
T2 sequence (Q6ZWH5 1-1172): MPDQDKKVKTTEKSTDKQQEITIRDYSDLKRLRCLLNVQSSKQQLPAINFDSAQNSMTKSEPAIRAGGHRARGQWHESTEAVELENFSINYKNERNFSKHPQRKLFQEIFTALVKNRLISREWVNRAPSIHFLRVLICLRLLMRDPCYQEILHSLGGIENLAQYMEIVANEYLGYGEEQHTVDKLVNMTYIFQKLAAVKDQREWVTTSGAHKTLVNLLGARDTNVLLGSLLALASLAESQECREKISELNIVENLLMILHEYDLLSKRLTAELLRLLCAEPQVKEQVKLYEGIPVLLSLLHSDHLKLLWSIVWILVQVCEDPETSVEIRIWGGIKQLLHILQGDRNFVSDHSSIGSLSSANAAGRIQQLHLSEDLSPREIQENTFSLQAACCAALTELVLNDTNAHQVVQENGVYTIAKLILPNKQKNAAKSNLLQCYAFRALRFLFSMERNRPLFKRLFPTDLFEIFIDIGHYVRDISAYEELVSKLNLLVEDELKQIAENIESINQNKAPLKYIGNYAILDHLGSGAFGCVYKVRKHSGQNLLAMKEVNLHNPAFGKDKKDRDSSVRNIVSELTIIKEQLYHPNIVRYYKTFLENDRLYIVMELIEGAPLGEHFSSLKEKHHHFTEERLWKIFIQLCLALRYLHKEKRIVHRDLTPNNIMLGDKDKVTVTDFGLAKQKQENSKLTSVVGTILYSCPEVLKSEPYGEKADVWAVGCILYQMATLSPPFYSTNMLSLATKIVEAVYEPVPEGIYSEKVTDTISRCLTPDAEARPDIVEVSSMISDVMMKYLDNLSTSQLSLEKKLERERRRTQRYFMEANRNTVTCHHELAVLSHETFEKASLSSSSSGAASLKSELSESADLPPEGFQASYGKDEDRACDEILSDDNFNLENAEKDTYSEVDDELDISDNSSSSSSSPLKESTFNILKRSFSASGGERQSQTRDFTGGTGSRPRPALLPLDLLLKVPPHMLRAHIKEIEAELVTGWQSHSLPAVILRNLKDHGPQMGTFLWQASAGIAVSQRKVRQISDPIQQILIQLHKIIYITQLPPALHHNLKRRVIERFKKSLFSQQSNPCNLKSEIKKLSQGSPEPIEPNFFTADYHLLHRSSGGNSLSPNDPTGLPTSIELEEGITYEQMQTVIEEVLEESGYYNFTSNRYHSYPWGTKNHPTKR
Method in brief: as §1

NIK = NIK (Homo sapiens, UniProt Q99558); conditions: read-out: % control
Chain of NIK (Q99558 whole entry): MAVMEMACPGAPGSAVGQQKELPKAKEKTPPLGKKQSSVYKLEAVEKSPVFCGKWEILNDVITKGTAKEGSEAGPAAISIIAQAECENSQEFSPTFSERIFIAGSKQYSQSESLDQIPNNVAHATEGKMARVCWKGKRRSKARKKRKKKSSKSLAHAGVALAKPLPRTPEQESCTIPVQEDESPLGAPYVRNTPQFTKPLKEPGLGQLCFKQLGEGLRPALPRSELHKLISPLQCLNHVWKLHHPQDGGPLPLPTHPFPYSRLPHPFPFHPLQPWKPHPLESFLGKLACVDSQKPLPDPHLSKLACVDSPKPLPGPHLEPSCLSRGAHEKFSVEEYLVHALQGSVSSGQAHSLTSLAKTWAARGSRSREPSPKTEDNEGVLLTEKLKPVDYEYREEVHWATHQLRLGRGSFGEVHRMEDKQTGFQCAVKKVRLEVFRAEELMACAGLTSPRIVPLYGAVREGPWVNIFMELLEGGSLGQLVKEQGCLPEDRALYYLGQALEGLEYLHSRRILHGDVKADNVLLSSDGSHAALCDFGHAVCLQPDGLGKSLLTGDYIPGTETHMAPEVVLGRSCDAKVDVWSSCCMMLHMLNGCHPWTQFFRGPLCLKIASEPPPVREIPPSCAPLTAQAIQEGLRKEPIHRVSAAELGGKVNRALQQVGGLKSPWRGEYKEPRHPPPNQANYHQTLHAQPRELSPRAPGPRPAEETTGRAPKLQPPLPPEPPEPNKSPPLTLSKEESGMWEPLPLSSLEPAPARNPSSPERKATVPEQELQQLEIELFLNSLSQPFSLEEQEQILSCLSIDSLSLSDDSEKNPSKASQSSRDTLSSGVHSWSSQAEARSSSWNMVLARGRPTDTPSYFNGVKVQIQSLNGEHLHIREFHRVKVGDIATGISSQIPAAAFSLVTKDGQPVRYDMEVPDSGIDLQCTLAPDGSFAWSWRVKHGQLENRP
Method in brief: as §1

p38-gamma = biological target: T3, p38-gamma (Homo sapiens, UniProt P53778); conditions: read-out: % control
T3 sequence (P53778 1-367): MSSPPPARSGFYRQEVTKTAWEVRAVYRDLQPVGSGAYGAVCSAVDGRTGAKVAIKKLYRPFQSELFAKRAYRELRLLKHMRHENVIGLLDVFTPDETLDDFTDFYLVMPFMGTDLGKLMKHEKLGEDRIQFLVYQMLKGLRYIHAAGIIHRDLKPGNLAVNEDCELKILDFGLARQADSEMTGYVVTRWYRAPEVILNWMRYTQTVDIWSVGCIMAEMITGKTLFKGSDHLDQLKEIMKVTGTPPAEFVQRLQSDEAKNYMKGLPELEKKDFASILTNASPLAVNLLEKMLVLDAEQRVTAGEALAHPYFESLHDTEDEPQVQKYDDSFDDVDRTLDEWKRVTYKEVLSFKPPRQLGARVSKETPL
Method in brief: as §1

Chain of QSK (Q9Y2K2 whole entry): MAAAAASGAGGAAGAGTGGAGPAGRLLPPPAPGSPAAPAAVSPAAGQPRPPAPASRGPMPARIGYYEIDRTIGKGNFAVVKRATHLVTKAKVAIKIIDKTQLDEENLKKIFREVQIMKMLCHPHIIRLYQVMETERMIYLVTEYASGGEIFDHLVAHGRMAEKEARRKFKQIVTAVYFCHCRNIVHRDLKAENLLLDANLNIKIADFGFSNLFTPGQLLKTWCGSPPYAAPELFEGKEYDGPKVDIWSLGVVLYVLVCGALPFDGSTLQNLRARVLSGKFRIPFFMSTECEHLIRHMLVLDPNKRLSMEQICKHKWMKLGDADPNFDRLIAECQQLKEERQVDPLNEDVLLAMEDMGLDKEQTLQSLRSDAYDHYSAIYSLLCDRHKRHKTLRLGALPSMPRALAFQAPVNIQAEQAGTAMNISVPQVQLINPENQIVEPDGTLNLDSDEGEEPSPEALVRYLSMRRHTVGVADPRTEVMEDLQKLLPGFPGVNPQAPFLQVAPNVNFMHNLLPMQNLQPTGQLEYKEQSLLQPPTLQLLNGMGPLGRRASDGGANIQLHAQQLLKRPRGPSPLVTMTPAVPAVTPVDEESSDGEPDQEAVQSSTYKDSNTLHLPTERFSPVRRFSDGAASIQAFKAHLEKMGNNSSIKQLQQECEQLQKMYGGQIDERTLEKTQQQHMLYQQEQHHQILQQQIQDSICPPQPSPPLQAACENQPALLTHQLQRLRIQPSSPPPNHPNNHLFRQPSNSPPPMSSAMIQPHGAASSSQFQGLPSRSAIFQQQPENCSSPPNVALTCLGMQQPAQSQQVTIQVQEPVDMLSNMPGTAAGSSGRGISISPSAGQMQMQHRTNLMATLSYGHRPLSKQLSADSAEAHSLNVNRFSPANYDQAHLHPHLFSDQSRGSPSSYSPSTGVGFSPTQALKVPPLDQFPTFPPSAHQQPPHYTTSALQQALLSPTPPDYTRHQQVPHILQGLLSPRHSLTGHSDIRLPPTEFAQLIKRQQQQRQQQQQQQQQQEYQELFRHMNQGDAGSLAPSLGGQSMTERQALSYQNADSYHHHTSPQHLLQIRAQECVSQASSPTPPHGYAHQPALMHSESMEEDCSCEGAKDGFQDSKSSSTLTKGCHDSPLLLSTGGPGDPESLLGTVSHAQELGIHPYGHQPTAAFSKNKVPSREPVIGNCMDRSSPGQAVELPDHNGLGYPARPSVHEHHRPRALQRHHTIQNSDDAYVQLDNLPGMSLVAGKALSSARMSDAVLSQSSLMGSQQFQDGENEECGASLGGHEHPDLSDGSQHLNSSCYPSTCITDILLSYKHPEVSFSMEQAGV

| Structure (SMILES) | remaining binding at 1 µM (QSK) [%] | remaining binding at 1 µM (RIPK4) [%] | remaining binding at 1 µM (PAK3) [%] | remaining binding at 1 µM (NEK10) [%] | remaining binding at 1 µM (NIK) [%] | remaining binding at 1 µM (p38-gamma) [%] |
| --- | --- | --- | --- | --- | --- | --- |
| CNc1c(-c2cnn([C@H]3CCN(C(C)=O)C[C@@H]3F)c2)cnc2[nH]cc(Cl)c12 [Compound 77, 1-((3S,4S)-4-(4-(3-chloro-4-(methylamino)-1H-pyrrolo[2,3-b]pyridin-5-yl)-1H-pyrazol-1-yl)-3-fluoropiperidin-1-yl)ethan-1-one] | 76 | 1.3 | 97 | 100 | 55 | 97 |
| CNc1c(-c2ccc(C(=O)N3CCC(N4CCOCC4)CC3)cc2)cnc2[nH]cc(Cl)c12 [Compound 96, (4-(3-chloro-4-(methylamino)-1H-pyrrolo[2,3-b]pyridin-5-yl)phenyl)(4-morpholinopiperidin-1-yl)methanone] | 76 | 7.8 | 74 | 100 | 13 | 92 |
| O=C(c1ccc(-c2cnc3[nH]cc(Cl)c3c2NC2CCCC2)cc1)N1CCC(N2CCOCC2)CC1 [Compound 101, (4-(3-chloro-4-(cyclopentylamino)-1H-pyrrolo[2,3-b]pyridin-5-yl)phenyl)(4-morpholinopiperidin-1-yl)methanone] | 97 | 100 | 86 | 100 | 88 | 79 |
